Measurements reported in patent US9888688B2, “Tetrazolinone compounds and applications thereof” (Sumitomo Chemical Company, Limited, priority 2013, dated 2018).

Each molecule was assayed on wheat leaf blotch fungus (Septoria tritici) (assay: Wheat leaf blotch control test, spray before inoculation (Test Examples 6, 9, 10, Comparative Test Example)). Conditions: 500 ppm foliar spray, wheat APOGEE, inoculated after 4 days.
Format: in vivo
With `Cn1nnn(-c2ccccc2COc2ccc(-c3ccccn3)cc2)c1=O` [Present Compound 223] the “area of lesion spots relative to that on an untreated plant” value (“area of lesion spots relative to that” below) was ≤ 30%. With `Cn1nnn(-c2ccccc2COc2ccc(-c3ccccc3)cc2)c1=O` [1-methyl-4-[2-(4-phenyl-phenoxymethyl)-phenyl]-1,4-dihydrotetrazol-5-one, reference compound] the “area of lesion spots relative to that” value was ≥ 70%.

These molecules were tested on cabbage moth (Plutella xylostella) (assay: Cabbage moth larvae mortality test on cabbage (Test Example 31)). Conditions: 120 h, 500 ppm spray on cabbage 20 mL/cup, third instar larvae, 25° C., after 5 days.
Format: in vivo
Protocol: (§1) In the present Test Example, a water dilution containing a surfactant prepared by adjusting so as to contain a predetermined concentration (500 ppm) of the present compound was used as a test chemical solution.
Cabbage was planted in each of polyethylene cups and grown until the third true leaf or the fourth true leaf was developed. The above test chemical solution was sprayed over the cabbage (Brassicae oleracea) at a rate of 20 mL/cup. After drying the chemical solution, the polyethylene cup having a volume of 400 mL was covered. Ten (10) heads of third instar larvae of cabbage moth (Plutella xylostella) were released in the cup and the cup was covered with a Tetron fabric. The cup was held at 25° C. and, after 5 days, the number of the surviving insects was counted and the mortality of insects was calculated by the following equation.
Mortality (%)=(number of dead insects/number of test insects)×100
In the case of `Cc1ccnc(-c2ccc(OCc3c(C4CC4)cccc3-n3nnn(C)c3=O)c(C)c2)n1` [Present Compound 92], the mortality at 500 ppm is reported as ≥ 90%. With `Cc1cccc(-c2ccc(OCc3c(C)cccc3-n3nnn(C)c3=O)c(C)c2)n1` [Present Compound 48] the mortality at 500 ppm was ≥ 90%.

What follows are molecules tested on barley net blotch fungus (Pyrenophora teres) (assay: Barley net blotch control test, foliar spray on barley (Test Examples 4, 16, 17, 18)). Conditions: 12.5 ppm foliar spray, barley NISHINOHOSHI, inoculated after 2 days.
Format: in vivo
In the case of `CCOc1cccc(-n2nnn(C)c2=O)c1COc1ccc(-c2cccc(C)n2)cc1C` [Present Compound 53], the “area of lesion spots relative to that” value is reported as ≤ 30%.

The molecules below were run on cotton aphid (Aphis gossypii) (assay: Cotton aphid control test on cucumber (Test Example 32)). Conditions: 144 h, 20 mL sprayed on cucumber, after 6 days.
Format: in vivo
Protocol: In the present Test Example, a water dilution containing a surfactant prepared by adjusting so as to contain a predetermined concentration (500 ppm) of the present compound was used as a test chemical solution. Thirty (30) heads of cotton aphid (Aphis gossypii) (including adults and larvae) were released on the leaves of cucumber grown in a polyethylene cup until the first true leaf was developed. Next day, 20 mL of the above test chemical solution was sprayed. After 6 days, the number of the surviving insects was counted and the control value was calculated by the following equation. Control value (%)={1−(Cb×Tai)/(Cai×Tb)}×100 wherein symbols in the equation represent the followings: Cb: Number of insects before spraying chemical solution in untreated area; Cai: Number of surviving insects in untreated area; Tb: Number of insects before spraying chemical solution in treated area; and Tai: Number of surviving insects in treated area.
In the case of `Cc1cc(-c2ncc(F)cn2)ccc1OCc1c(C)cccc1-n1nnn(C)c1=O` [Present Compound 236], the pest or weed control at 500 ppm is reported as ≥ 90%. `CCc1cccc(-c2ccc(OCc3c(C)cccc3-n3nnn(C)c3=O)c(C(F)(F)F)c2)n1` [Present Compound 131] was tested, and the pest or weed control at 500 ppm was ≥ 90%. `Cc1cc(-c2ncc(F)cn2)c(C)cc1OCc1c(C)cccc1-n1nnn(C)c1=O` [Present Compound 238] was tested, and the pest or weed control at 500 ppm was ≥ 90%. With `Cc1cc(-c2cccc(C#N)n2)ccc1OCc1c(C2CC2)cccc1-n1nnn(C)c1=O` [Present Compound 116] the pest or weed control at 500 ppm was ≥ 90%. With `CCOc1cccc(-n2nnn(C)c2=O)c1COc1ccc(-c2cccc(Cl)n2)cc1C` [Present Compound 41] the pest or weed control at 500 ppm was ≥ 90%. For `CCc1cccc(-n2nnn(C)c2=O)c1COc1ccc(-c2nccc(C)n2)cc1C(F)(F)F` [Present Compound 138], the pest or weed control at 500 ppm was ≥ 90%. For `CCOc1cccc(-n2nnn(C)c2=O)c1COc1ccc(-c2ccc(Cl)cn2)cc1C` [Present Compound 29], the pest or weed control at 500 ppm was ≥ 90%. With `Cc1ccnc(-c2ccc(OCc3c(C)cccc3-n3nnn(C)c3=O)c(C)c2)c1` [Present Compound 20] the pest or weed control at 500 ppm was ≥ 90%. With `Cc1ccnc(-c2ccc(OCc3c(Cl)cccc3-n3nnn(C)c3=O)c(C(F)(F)F)c2)n1` [Present Compound 134] the pest or weed control at 500 ppm was ≥ 90%. `Cc1ccc(-c2ccc(OCc3c(C)cccc3-n3nnn(C)c3=O)c(C)c2)nn1` [Present Compound 234] was tested, and the pest or weed control at 500 ppm was ≥ 90%. For `Cc1cccc(-c2ccc(OCc3ccccc3-n3nnn(C)c3=O)c(C(F)(F)F)c2)n1` [Present Compound 127], the pest or weed control at 500 ppm was ≥ 90%. With `CCOc1cccc(-n2nnn(C)c2=O)c1COc1ccc(-c2ccccn2)cc1C` [Present Compound 8] the pest or weed control at 500 ppm was ≥ 90%. In the case of `Cc1cc(-c2ccc(F)cn2)c(F)cc1OCc1c(C)cccc1-n1nnn(C)c1=O` [Present Compound 195], the pest or weed control at 500 ppm is reported as ≥ 90%. With `Cc1ccnc(-c2ccc(OCc3ccccc3-n3nnn(C)c3=O)c(C(F)(F)F)c2)n1` [Present Compound 137] the pest or weed control at 500 ppm was ≥ 90%. For `Cc1cccc(-c2ccc(OCc3c(C)cccc3-n3nnn(C)c3=O)c(C(F)(F)F)c2)n1` [Present Compound 59], the pest or weed control at 500 ppm was ≥ 90%. `Cc1cccc(-c2ccc(OCc3c(C)cccc3-n3nnn(C)c3=O)c(C#N)c2)n1` [Present Compound 156] was tested, and the pest or weed control at 500 ppm was ≥ 90%. In the case of `CCc1cccc(-c2ccc(OCc3c(OC)cccc3-n3nnn(C)c3=O)c(C)c2)n1` [Present Compound 45], the pest or weed control at 500 ppm is reported as ≥ 90%. `COc1ccncc1-c1cc(C)c(OCc2c(C)cccc2-n2nnn(C)c2=O)cc1C` [Present Compound 192] was tested, and the pest or weed control at 500 ppm was ≥ 90%. For `C=C(C)c1cccc(-c2ccc(OCc3c(C)cccc3-n3nnn(C)c3=O)c(C)c2)n1` [Present Compound 148], the pest or weed control at 500 ppm was ≥ 90%. `Cc1cccc(-n2nnn(C)c2=O)c1COc1cc(Cl)c(-c2ccccn2)cc1Cl` [Present Compound 210] was tested, and the pest or weed control at 500 ppm was ≥ 90%. `Cc1cc(-c2cccc(C(C)C)n2)ccc1OCc1c(C)cccc1-n1nnn(C)c1=O` [Present Compound 149] was tested, and the pest or weed control at 500 ppm was ≥ 90%. For `Cc1cc(-c2ccc(F)cn2)c(C)cc1OCc1c(C2CC2)cccc1-n1nnn(C)c1=O` [Present Compound 219], the pest or weed control at 500 ppm was ≥ 90%. In the case of `CCc1cccc(-c2ccc(OCc3ccccc3-n3nnn(C)c3=O)c(C(F)(F)F)c2)n1` [Present Compound 130], the pest or weed control at 500 ppm is reported as ≥ 90%. With `COc1cc(-c2cccc(C)n2)ccc1OCc1c(C)cccc1-n1nnn(C)c1=O` [Present Compound 155] the pest or weed control at 500 ppm was ≥ 90%.

Each molecule was assayed on common house mosquito (Culex pipiens pallens) (assay: Common house mosquito larvae mortality test (Test Example 30)). Conditions: 192 h, 3.5 ppm active ingredient in water, last instar larvae, after 8 days.
Format: in vivo
Protocol: as §1
The above test chemical solution (0.7 mL) was added to 100 mL of deionized water to adjust the concentration of an active ingredient to 3.5 ppm. Twenty (20) heads of last instar larvae of common house mosquito (Culex pipiens pallens) were released in the solution and the number of dead insects was counted after 8 days.
Mortality was determined by the following equation. Mortality (%)=(number of dead insects/number of test insects)×100
Work on `Cc1cc(-c2ncc(F)cn2)ccc1OCc1c(C)cccc1-n1nnn(C)c1=O` [Present Compound 236] yielded a mortality at 3.5 ppm of 100%. In the case of `Cc1cc(-c2cccc(C#N)n2)ccc1OCc1c(C2CC2)cccc1-n1nnn(C)c1=O` [Present Compound 116], the mortality at 3.5 ppm is reported as 100%. In the case of `Cc1cc(-c2ncc(Cl)cn2)c(F)cc1OCc1c(C)cccc1-n1nnn(C)c1=O` [Present Compound 242], the mortality at 3.5 ppm is reported as 100%. For `CCc1cccc(-n2nnn(C)c2=O)c1COc1cc(C)c(-c2ccc(F)cn2)cc1C` [Present Compound 215], the mortality at 3.5 ppm was 100%. Work on `CCc1cccc(-n2nnn(C)c2=O)c1COc1ccc(-c2nccc(C)n2)cc1C` [Present Compound 93] yielded a mortality at 3.5 ppm of 100%.
